Results on 15 molecules are retold here after article PMC7481482, “Development of Anthraquinone Derivatives as Ectonucleoside Triphosphate Diphosphohydrolase (NTPDase) Inhibitors With Selectivity for NTPDase2 and NTPDase3” (Frontiers in Pharmacology, 2020).

What all share (format): biochemical
In one assay the target is T1, human NTPDase1 (Homo sapiens, UniProt P49961).
T1 construct: expressed in transfected cells; host or cells: COS-7 cells (membrane preparation)
T1 sequence (P49961 1-510): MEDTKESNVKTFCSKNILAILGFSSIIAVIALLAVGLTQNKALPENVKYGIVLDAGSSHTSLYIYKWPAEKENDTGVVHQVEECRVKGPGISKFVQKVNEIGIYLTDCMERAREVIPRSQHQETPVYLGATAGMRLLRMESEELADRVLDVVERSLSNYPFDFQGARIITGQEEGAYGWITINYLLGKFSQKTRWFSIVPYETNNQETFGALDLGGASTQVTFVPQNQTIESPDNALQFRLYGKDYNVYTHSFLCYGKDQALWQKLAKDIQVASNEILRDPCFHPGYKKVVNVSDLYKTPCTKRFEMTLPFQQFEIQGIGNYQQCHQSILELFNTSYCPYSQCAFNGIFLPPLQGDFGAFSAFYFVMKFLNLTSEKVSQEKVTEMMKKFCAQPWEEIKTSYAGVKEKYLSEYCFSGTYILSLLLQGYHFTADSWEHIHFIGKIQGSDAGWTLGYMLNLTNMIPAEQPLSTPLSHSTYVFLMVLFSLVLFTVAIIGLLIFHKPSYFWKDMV
In words: Malachite green assay, human NTPDase1. Conditions: 2 μM compound; 50 µM ATP; COS-7 membrane preparation; read-out: % inhibition at 2 μM concentration, NTPDase1. Here is the method:
(§1) Membrane preparations expressing human NTPDase1, -2, -3, or -8, respectively, were obtained as previously described ([Sévigny et al., 1997]; [Cogan et al., 1999]; [Kukulski et al., 2005]; [Lecka et al., 2013]; [Lee et al., 2018]). Enzyme inhibition assays were performed using the malachite green assay in analogy to published procedures with some modifications ([Dou et al., 2018]). The reaction buffer contained 10 mM HEPES, 2 mM CaCl2, and 1 mM MgCl2 (pH 7.4) in a final volume of 50 μL in transparent 96-well half-area plates. The compounds were initially tested at a final concentration of 2 µM using a COS-7-cell membrane preparation expressing the appropriate NTPDase isoenzyme (protein amount: 143 ng for NTPDase1, 175 ng for NTPDase2, 152 ng for NTPDase3, and 175 ng for NTPDase8). Preincubated of the enzyme preparations was perfomred at 37°C in the presence or absence of test compounds with gentle shaking (Eppendorf Thermomixer comfort at 500 rpm) for 5 min. […] ([Kukulski et al., 2005]). After 15 min of incubation at 37°C with gentle shaking, the reaction was stopped by the addition of the detection reagents (20 µL malachite green solution, 0.6 mM, and 30 µL of ammonium molybdate solution, 20 mM, in 1.5 M sulfuric acid). The released inorganic phosphate was quantified after 20 min of gentle shaking at 25°C by measuring the absorption of the malachite green-phosphomolybdate complex at 600 nm using a BMG PheraStar FS plate reader (BMG Labtech GmbH, Ortenberg, Germany). The corrected absorption was calculated by subtracting the absorption of the negative control samples, which were incubated with previously denatured enzyme (90°C, 15 min). Full concentration-inhibition curves were determined with inhibitor concentrations ranging from 0.03 to 30 µM in the presence of 2% DMSO. Inhibition-type experiments were performed with 25, 50, 100, 150 and 200 µM ATP as substrate for NTPDase2 in the presence of inhibitor 20 (0, 0.25, 0.5, and 1 µM) and 25, 50, 100 and 150 µM ATP substrate for NTPDase3 and compound 42 (0.25, 0.5, and 1 µM). For all of the presented data, at least three independent experiments were performed, and IC50 values were calculated by GraphPad Prism 8 software.
(§2) Inhibition of human NTPDases was performed using the malachite green assay, which was established on a robotic system (Z’ factors > 0.70) ([Baykov et al., 1988]; [Fiene et al., 2015]). The malachite green assay enables the detection of the phosphate produced by the enzymatic hydrolysis of nucleotides. A fixed substrate concentration of 50 µM ATP for NTPDase1 and 100 µM for NTPDase2, -3, and -8 was employed. Test compounds were initially screened at a concentration of 2 μM. […] A total of 48 synthesized anthraquinone derivatives including 14 new compounds not previously described in the literature were evaluated for their inhibitory activity at human NTPDase1, -2, -3, and -8 (for results see Table 1).

The target of the next assay is T2, human NTPDase8 (Homo sapiens, UniProt Q5MY95).
T2 construct: expressed in transfected cells; host or cells: COS-7 cells (membrane preparation)
T2 sequence (Q5MY95 1-495): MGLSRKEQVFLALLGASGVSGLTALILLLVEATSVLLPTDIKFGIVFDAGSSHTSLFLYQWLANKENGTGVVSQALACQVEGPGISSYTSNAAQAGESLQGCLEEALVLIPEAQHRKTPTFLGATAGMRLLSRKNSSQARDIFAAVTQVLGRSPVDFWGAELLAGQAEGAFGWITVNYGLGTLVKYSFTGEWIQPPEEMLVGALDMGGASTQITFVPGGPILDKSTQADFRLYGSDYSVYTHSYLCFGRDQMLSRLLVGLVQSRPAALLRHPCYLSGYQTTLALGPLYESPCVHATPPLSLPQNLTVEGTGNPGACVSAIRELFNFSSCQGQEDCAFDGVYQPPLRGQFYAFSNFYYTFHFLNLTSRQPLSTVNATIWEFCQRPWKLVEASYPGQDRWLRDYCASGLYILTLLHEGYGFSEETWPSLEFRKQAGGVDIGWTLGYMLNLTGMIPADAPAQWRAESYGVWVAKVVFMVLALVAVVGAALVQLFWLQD
In words: Malachite green assay, human NTPDase8. Conditions: 2 μM compound; 100 µM ATP; COS-7 membrane preparation; read-out: % inhibition at 2 μM concentration, NTPDase8. The protocol:
as §1, §2

The next assay addresses T3, human NTPDase2 (Homo sapiens, UniProt Q9Y5L3).
T3 construct: expressed in transfected cells; host or cells: COS-7 cells (membrane preparation)
T3 sequence (Q9Y5L3 1-495): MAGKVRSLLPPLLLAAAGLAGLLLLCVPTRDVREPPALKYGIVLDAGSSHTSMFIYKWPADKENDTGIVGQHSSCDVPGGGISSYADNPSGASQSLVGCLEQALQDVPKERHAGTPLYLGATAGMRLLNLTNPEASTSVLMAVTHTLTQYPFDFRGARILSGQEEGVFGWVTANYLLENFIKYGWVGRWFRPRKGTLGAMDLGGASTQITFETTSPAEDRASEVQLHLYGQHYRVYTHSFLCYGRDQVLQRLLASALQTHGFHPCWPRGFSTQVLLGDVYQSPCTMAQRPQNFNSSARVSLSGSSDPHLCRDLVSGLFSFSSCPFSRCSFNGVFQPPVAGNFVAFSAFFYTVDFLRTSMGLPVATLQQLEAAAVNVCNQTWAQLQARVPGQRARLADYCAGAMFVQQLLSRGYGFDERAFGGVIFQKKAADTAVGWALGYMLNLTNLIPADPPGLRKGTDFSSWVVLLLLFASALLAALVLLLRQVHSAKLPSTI
The experiment in a line: Malachite green assay, human NTPDase2. Conditions: 100 µM ATP, COS-7 membrane preparation; for inhibition at 2 µM: 2 μM compound, read-out: % inhibition at 2 μM concentration, NTPDase2; for IC50: read-out: IC50 ± SEM, NTPDase2. The protocol:
as §1, §2

The target of another assay is T4, human NTPDase3 (Homo sapiens, UniProt O75355).
T4 construct: expressed in transfected cells; host or cells: COS-7 cells (membrane preparation)
T4 sequence (O75355 1-529): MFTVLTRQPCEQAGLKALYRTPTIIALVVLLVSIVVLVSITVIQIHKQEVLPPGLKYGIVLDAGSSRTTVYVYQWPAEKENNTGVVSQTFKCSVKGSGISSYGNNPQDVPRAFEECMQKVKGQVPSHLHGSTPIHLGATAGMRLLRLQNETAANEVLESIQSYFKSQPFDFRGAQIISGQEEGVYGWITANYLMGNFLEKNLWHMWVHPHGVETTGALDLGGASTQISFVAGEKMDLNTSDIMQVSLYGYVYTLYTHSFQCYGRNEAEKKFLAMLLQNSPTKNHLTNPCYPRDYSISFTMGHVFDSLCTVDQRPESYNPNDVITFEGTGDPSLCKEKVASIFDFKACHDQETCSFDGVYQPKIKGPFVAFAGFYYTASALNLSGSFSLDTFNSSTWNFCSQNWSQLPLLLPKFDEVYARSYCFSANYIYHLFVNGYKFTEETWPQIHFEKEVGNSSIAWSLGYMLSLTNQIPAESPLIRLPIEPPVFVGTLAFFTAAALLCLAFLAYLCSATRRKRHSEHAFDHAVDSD
In words: Malachite green assay, human NTPDase3. Conditions: 100 µM ATP, COS-7 membrane preparation; for IC50: read-out: IC50 ± SEM, NTPDase3; for inhibition at 2 µM: 2 μM compound, read-out: % inhibition at 2 μM concentration, NTPDase3. The protocol: as §1, §2

As a reminder, the IC50 is the concentration needed to halve the response being measured. Regarding `Nc1c(S(=O)(=O)O)cc(Nc2ccc(Cl)cc2C(=O)O)c2c1C(=O)c1ccccc1C2=O` [Compound 36], the inhibition at 2 µM on human NTPDase1 is -20%; on human NTPDase8, -17%; on human NTPDase2, -2%. For the same molecule, the concentration for half-maximal inhibition (IC50) on human NTPDase3 stood at 4.04 ± 0.47 µM.
For `Nc1cc(Nc2cc(S(=O)(=O)O)c(N)c3c2C(=O)c2ccccc2C3=O)ccc1S(=O)(=O)O` [Compound 31], in that order: -15%, -19%, 1% and 4.26 ± 0.54 µM.
On to `Nc1ccc(Nc2cc(S(=O)(=O)O)c(N)c3c2C(=O)c2ccccc2C3=O)cc1` [Compound 25], for which the inhibition at 2 µM is -19% on human NTPDase1, -12% on human NTPDase8, 17% on human NTPDase2 and -25% at human NTPDase3.
Turning to `Nc1c(S(=O)(=O)O)cc(Nc2ccc(Cc3ccccc3)cc2)c2c1C(=O)c1ccccc1C2=O` [Compound 43], the results for the inhibition at 2 µM at human NTPDase1, at human NTPDase8 and on human NTPDase3 were 7%, 3% and 3%, respectively. Moreover, at human NTPDase2, the IC50 stood at 1.32 ± 0.05 µM.
For the molecule `Nc1c(S(=O)(=O)O)cc(Nc2ccc(O)c(C(=O)O)c2)c2c1C(=O)c1ccccc1C2=O` [Compound 33, 1-amino-4-(3-carboxy-4-hydroxyphenylamino)-9,10-dioxo-9,10-dihydroanthracene-2-sulfonate], the figures for the inhibition at 2 µM at human NTPDase1, on human NTPDase8 and on human NTPDase2 were -12%, -9% and 12%, respectively. Further, at human NTPDase3, the half-maximal inhibitory concentration (IC50) turned out to be 0.723 ± 0.032 µM.
Take `Nc1c(S(=O)(=O)O)cc(NCc2ccccc2)c2c1C(=O)c1ccccc1C2=O` [Compound 12]: the inhibition at 2 µM was -10% on human NTPDase1, 3% at human NTPDase8, 11% at human NTPDase2 and 6% on human NTPDase3.
With `Nc1c(S(=O)(=O)O)cc(Nc2ccccc2)c2c1C(=O)c1ccccc1C2=O` [Compound 14], the inhibition at 2 µM at human NTPDase1 was -13%; on human NTPDase8 it was -15%; on human NTPDase2 it was 15%; at human NTPDase3, -10%.
Consider `Nc1c(S(=O)(=O)O)cc(Nc2cccc(Oc3ccccc3)c2)c2c1C(=O)c1ccccc1C2=O` [Compound 40], for which the inhibition at 2 µM was found to be 12% on human NTPDase1, 9% at human NTPDase8 and 18% on human NTPDase3. For the same molecule, at human NTPDase2, the half-inhibitory concentration (IC50) worked out at 1.11 ± 0.06 µM.
In the case of `Nc1c(S(=O)(=O)O)cc(Nc2ccc(Sc3ccccc3)cc2)c2c1C(=O)c1ccccc1C2=O` [Compound 44], the inhibition at 2 µM at human NTPDase1 was 15%; at human NTPDase8, 6%; on human NTPDase3 it was 7%. For the same molecule, the IC50 on human NTPDase2 stood at 0.934 ± 0.136 µM.
In the case of `Nc1c(S(=O)(=O)O)cc(Nc2cccc(Br)c2)c2c1C(=O)c1ccccc1C2=O` [Compound 22], the inhibition at 2 µM was -4% on human NTPDase1, -26% at human NTPDase8 and 12% at human NTPDase2. On human NTPDase3, the IC50 was determined as 8.96 ± 1.08 µM.
`Nc1c(S(=O)(=O)O)cc(Nc2cccc(Cc3ccccc3)c2)c2c1C(=O)c1ccccc1C2=O` [Compound 39]: the inhibition at 2 µM at human NTPDase1 is 36%; at human NTPDase8, 28%. Moreover, the IC50 at human NTPDase2 came to 3.59 ± 0.85 µM; at human NTPDase3, 13.1 ± 1.65 µM.
Regarding `Cc1cc(Cl)ccc1Nc1cc(S(=O)(=O)O)c(N)c2c1C(=O)c1ccccc1C2=O` [Compound 38], the inhibition at 2 µM is 2% on human NTPDase1, -1% at human NTPDase8 and 9% on human NTPDase3. In addition, the concentration for half-maximal inhibition (IC50) on human NTPDase2 amounted to 5.45 ± 0.7 µM.
For `COc1cccc(Nc2cc(C)c(N)c3c2C(=O)c2ccccc2C3=O)c1` [Compound 55], the inhibition at 2 µM is -6% at human NTPDase1, -2% at human NTPDase8, 3% at human NTPDase2 and 0% on human NTPDase3.
As for `Cc1cc(Nc2cccc(F)c2)c2c(c1N)C(=O)c1ccccc1C2=O` [Compound 54], the inhibition at 2 µM on human NTPDase1 was -4%; at human NTPDase8 it was -2%; at human NTPDase2, 7%; at human NTPDase3, -2%.
For `Cc1ccc(Sc2ccc(Nc3cc(S(=O)(=O)O)c(N)c4c3C(=O)c3ccccc3C4=O)cc2)c(C)c1` [Compound 49], the inhibition at 2 µM on human NTPDase1 was found to be 46%; at human NTPDase8, 27%; on human NTPDase3, 36%. The IC50 at human NTPDase2 was found to be 1.28 ± 0.34 µM.
